What follows are compounds tested against T1, human CRTH2 receptor (Homo sapiens, UniProt Q9Y5Y4) (assay: CRTH2 receptor radioligand binding assay (SPA, [3H]-PGD2)). Settings: displacement of [3H]-PGD2 (1 nM) from CHO-K1-hCRTH2 cell membranes, SPA format, 3 h room temperature.
T1 construct: host or cells: CHO-K1 (CHO-K1-hCRTH2 cells), membranes prepared in house
T1 sequence (Q9Y5Y4 1-395): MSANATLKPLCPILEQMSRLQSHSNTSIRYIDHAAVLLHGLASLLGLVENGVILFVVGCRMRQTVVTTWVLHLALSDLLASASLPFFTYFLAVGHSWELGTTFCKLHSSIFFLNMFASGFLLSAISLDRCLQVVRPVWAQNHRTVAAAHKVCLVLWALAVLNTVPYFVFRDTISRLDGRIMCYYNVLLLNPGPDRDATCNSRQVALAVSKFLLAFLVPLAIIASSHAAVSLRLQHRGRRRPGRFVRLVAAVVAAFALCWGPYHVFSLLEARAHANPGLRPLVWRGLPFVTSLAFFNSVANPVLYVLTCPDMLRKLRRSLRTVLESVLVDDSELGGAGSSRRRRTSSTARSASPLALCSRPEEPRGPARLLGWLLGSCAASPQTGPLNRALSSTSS
Protocol: The binding of CRTH2 antagonists is determined using membranes prepared from Chinese hamster ovary cells (CHO-K1 cells) transfected with the human CRTH2 receptor (CHO-K1-hCRTH2 cells, Perkin Elmer, Cat No ES-561-C). To produce cell membranes the CHO-K1-hCRTH2 cells are cultured in suspension in CHO SFMII medium supplemented with 400 μg/ml G418. The cells are harvested by centrifugation at 300 g for 10 min at room temperature. The cell pellet is resuspended in Phosphate Buffer Saline (PBS) including a protease inhibitor mix (Complete, Roche) and adjusted to a concentration of 10E7 cells/ml. The CHO-K1-hCRTH2 cells are disrupted by nitrogen […] to obtain the membrane preparation. Cell debris is removed by centrifugation (500 g at 4° C., 30 min) and the supernatant is transferred into fresh tubes followed by a second centrifugation at 40000 g for 1 h at 4° C. to sediment the membranes. The membranes are suspended in SPA incubation buffer (50 mM Tris HCl, 10 mM MgCl2, 150 mM NaCl, 1 mM EDTA, pH 7.4) without bovine serum albumin, homogenized by passing through a single use needle (Terumo, 23G×1″), and stored in aliquots at −80° C.
The CRTH2 receptor binding assay is performed in a scintillation proximity assay (SPA) format with the radioligand [^3H]-PGD2 (Perkin Elmer, NET616000MC). CHO-K1-hCRTH2 cell membranes are again homogenized by passing through a single use needle (Terumo, 23G×1″) and diluted in SPA incubation buffer in suitable concentrations (0.5-10 μg protein/well). The SPA assay is set up in 96 well microtiter plates (Perkin Elmer, CatNo. 6005040) in SPA incubation buffer with a final volume of 200 μl per well and final concentration of 50 mM Tris-HCl, 10 mM MgCl2, 150 mM NaCl, 1 mM EDTA pH 7.4, 0.1% bovine serum albumin). The SPA assay mixture contains 60 μl of the membrane suspension, 80 μl of Wheat Germ Agglutinin coated PVT beads (GE Healthcare, RPNQ-0001, 0.3 mg/well), 40 μl of [3H]-PGD2 diluted in SPA buffer to a final concentration of 1 nM (50 000 dpm) and 20 μl of the test compound (dissolved in dimethylsulfoxid). The SPA assay mixture is incubated for 3 h at room temperature. Bound radioactivity is determined with a scintillation counter (Micro Beta Trilux, Wallac).
The binding of [^3H]-PGD2 to CHO-K1-hCRTH2 cell membranes is determined in the absence (total binding, Bo) and presence (non-specific binding, NSB) of unlabelled PGD2 (1 μM, Cayman Chemical, Cat No 12010) or a reference CRTH2 antagonist (10 μM CAY10471, Cayman Chemical, Cat No 10006735).
Determination of the affinity of a test compound is calculated by subtraction of the non-specific binding (NSB) from the total binding (Bo) or the binding in the presence of the test compound (B) at a given compound concentration. […] The Bo-NSB value is set to 0% inhibition.

First: CCn1c(C(=O)Nc2ccc(Cn3nc(C)c(CC(=O)O)c3C)c(F)c2)cc2cc(F)ccc21 [Cmpd 32]
Second: Cc1nn(Cc2ccc(NC(=O)c3oc4ccc(F)cc4c3C)cc2F)c(C)c1CC(=O)O [Cmpd 27]
The Ki of the first is 3-fold lower: 0.2 nM for the first, 0.6 nM for the second.

`Cc1nn(Cc2ccc(NC(=O)c3cc4ccccc4o3)cc2)c(C)c1CC(=O)O` [Cmpd 26] and `Cc1nn(Cc2ccc(NC(=O)c3oc4ccc(F)cc4c3C)cc2)c(C)c1CC(=O)O` [Cmpd 4] are the same in Ki: 0.8 nM for the first, 0.8 nM for the second.

Going from `Cc1nn(Cc2ccc(NC(=O)c3cc4ccccc4[nH]3)cc2F)c(C)c1CC(=O)O` [Cmpd 1] to `Cc1nn(Cc2ccc(NC(=O)c3oc4ccc(Br)cc4c3C)cc2F)c(C)c1CC(=O)O` [Cmpd 45], the Ki falls from 0.8 nM to 0.3 nM (2.7-fold). The second binds more tightly here.

`CCc1c(C(=O)Nc2ccc(Cn3nc(C)c(CC(=O)O)c3C)cc2)oc2ccc(F)cc12` [Cmpd 48] showed a Ki of 1.2 nM.
